For experiment [1], the target named is T1, Mushroom tyrosinase (EC 1.14.18.1) (Agaricus bisporus, UniProt C7FF04).
T1 construct: purchased Sigma-Aldrich
Put plainly: Mushroom tyrosinase inhibition assay (L-tyrosine or L-DOPA as substrate). The experiment is classed as biochemical. The procedure: In order to evaluate the inhibitory effects of synthesized furan chalcone derivatives on the enzyme activity, tested compounds were subjected to a mushroom tyrosinase inhibition assay with monophenolase (L-tyrosine) or diphenolase (L-3,4-dihydroxyphenyl-alanine; L-DOPA) as the substrates.
Mushroom tyrosinase inhibition was determined following our previously reported methods. All experiments were done in triplicate. […] The measurement was completed in triplicate for each concentration and averaged. The IC50 values were determined by interpolation of the dose-inhibition % curves.

In a further experiment the target is T2, mushroom tyrosinase (Agaricus bisporus, UniProt C7FF04).
T2 construct: purchased Sigma-Aldrich
T2 sequence (C7FF04 1-392): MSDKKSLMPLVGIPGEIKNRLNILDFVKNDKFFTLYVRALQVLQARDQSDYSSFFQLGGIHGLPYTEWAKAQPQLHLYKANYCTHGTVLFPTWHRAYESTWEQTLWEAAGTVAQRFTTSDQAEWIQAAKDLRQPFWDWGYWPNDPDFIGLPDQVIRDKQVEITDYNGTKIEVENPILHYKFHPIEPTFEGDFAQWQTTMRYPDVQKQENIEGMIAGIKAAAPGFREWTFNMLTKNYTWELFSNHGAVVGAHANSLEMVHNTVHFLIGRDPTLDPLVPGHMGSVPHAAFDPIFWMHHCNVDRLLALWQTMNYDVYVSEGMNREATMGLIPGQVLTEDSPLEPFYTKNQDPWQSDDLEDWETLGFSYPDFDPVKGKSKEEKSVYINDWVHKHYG
To be noted: reported inhibitor type of mushroom tyrosinase; cited from earlier work.

The target of experiment [2] is T1, Mushroom tyrosinase (EC 1.14.18.1). Set-up: method as in PMID 30360412. The note with it: earlier results of the authors, cited from earlier work.
[3] abbreviates: L-DOPA as substrate (diphenolase), mean ± SEM of triplicate, read-out: IC50 (μM) b.
Setting [4] is: L-tyrosine as substrate (monophenolase), mean ± SEM of triplicate, read-out: IC50 (μM) a.
Where [5] appears, read: IC50 (μM) b, L-DOPA as substrate (diphenolase), mean ± SEM of triplicate.

Like-named read-outs stand apart in the source and are kept apart here.

T1 sequence (C7FF04 1-392): as above

In general, IC50 refers to the concentration needed to halve the response being measured. For the compound `O=C(/C=C/c1ccc(O)c(O)c1)c1ccco1` [Compound 2, (E)-3-(3,4-Dihydroxyphenyl)-1-(furan-2-yl)prop-2-en-1-one], the half-maximal inhibitory concentration (IC50) in experiment [1] (setting [3]) was determined as 24.9 ± 3.25 µM; in experiment [1] (setting [4]) it was 84.9 ± 3.79 µM.
In the same order, the values of `O=C(/C=C/c1ccc(O)c(Br)c1)c1ccco1` [Compound 6, (E)-3-(3-Bromo-4-hydroxyphenyl)-1-(furan-2-yl)prop-2-en-1-one] are > 200 µM and 51.2 ± 3.73 µM.
For `COc1cc(/C=C/C(=O)c2ccco2)cc(OC)c1O` [Compound 5, (E)-1-(Furan-2-yl)-3-(4-hydroxy-3,5-dimethoxyphenyl)prop-2-en-1-one], the IC50 in experiment [1] (setting [3]) and in experiment [1] (setting [4]) was > 200 µM each time.
On to `O=C(/C=C/c1cc(Br)c(O)c(Br)c1)c1ccco1` [Compound 7, (E)-3-(3,5-Dibromo-4-hydroxyphenyl)-1-(furan-2-yl)prop-2-en-1-one], for which the half-maximal inhibitory concentration (IC50) is 27.2 ± 0.38 µM in experiment [1] (setting [3]) and > 200 µM in experiment [1] (setting [4]).
As for `O=C(O)/C=C/c1ccccc1` [Cinnamic acid, reference compound], the inhibition type result on mushroom tyrosinase was “mixed-type”. For the same compound, the half-inhibitory concentration (IC50) in experiment [1] and in experiment [1] (setting [5]) was > 200 µM in each case.
As to `O=C(/C=C/c1cccs1)c1ccc(O)cc1O` [(E)-2,4-dihydroxyphenyl-(thiophen-2-yl)prop-2-en-1-one], the figures for the concentration for half-maximal inhibition (IC50) in experiment [2] (diphenolase) and in experiment [2] (monophenolase) were 0.93 µM and 0.013 µM, respectively.
`COc1cc(/C=C/C(=O)c2ccco2)ccc1O` [Compound 3, (E)-1-(Furan-2-yl)-3-(4-hydroxy-3-methoxyphenyl)prop-2-en-1-one]: the 50% inhibitory concentration (IC50) in experiment [1] (setting [3]) and in experiment [1] (setting [4]) was > 200 µM in each case.
Consider `COc1ccc(/C=C/C(=O)c2ccco2)cc1O` [Compound 4, (E)-1-(Furan-2-yl)-3-(3-hydroxy-4-methoxyphenyl)prop-2-en-1-one], for which the results for the IC50 in experiment [1] (setting [3]) and in experiment [1] (setting [4]) were 37.4 ± 4.89 µM and 13.6 ± 3.74 µM, respectively.
As for `O=C(O)c1ccccc1C(=O)O` [Phthalic acid, reference compound], the inhibition type entry on mushroom tyrosinase is reported as “mixed-type”. In addition, the IC50 in experiment [1] and in experiment [1] (setting [5]) was > 200 µM in each case.
Turning to `O=C(/C=C/c1ccc(O)cc1)c1ccco1` [Compound 1, (E)-1-(Furan-2-yl)-3-(4-hydroxyphenyl)prop-2-en-1-one], the 50% inhibitory concentration (IC50) in experiment [1] (setting [3]) is > 200 µM; in experiment [1] (setting [4]), 28.9 ± 1.21 µM.
